The test system of assay [1] is MV4;11 WT cells. Briefly: CellTiter-Glo cell viability, WT MV4;11 cells. The assay is classed as cell-based. To be noted: Homo sapiens, MV4-11; 24 h, CTG. How it is done: (§1) CellTiter-Glo cell viability and CytoTox-Fluor cell death assays. Cells were plated (2,000 cells per well) in white, 384-well clear-bottom plates (Corning) using an EL406 Microplate Washer/Dispenser (BioTek) in 25 μL final volume of medium. To the cell plates were added compounds at different concentrations using a pintool (CyBio) and the plates were allowed to incubate in the incubator. After incubation for indicated times, CytoTox-Fluor reagent (Promega, G9262) was added according to the manufacturer's protocol. The assay plates were then incubated for another 30 min before fluorescence was recorded using a Cytation 5 Cell Imaging Multi-Mode Reader (BioTek). Next, CellTiter-Glo reagent (Promega, G7573) was subsequently added to the assay plates following the manufacturer's protocol. Assay plates were shaken on an orbital shaker for 2 min and incubated at 25° C. for 10 min. Luminescence was then read using a Cytation 5 Cell Imaging Multi-Mode Reader (BioTek).
A general note: ATP-based viability assays read luminescence as a measure of living cells.

Assay [2] deals with primary bone marrow-derived macrophages (BMDMs) and mouse RAW264.7 cells. Briefly: LDH release and GSDMD cleavage in BMDMs and RAW264.7 cells (mouse NLRP1). The class given is cell-based. To be noted: VbP 10 μM, CQ31/CQ80 20 μM, 24 h. How it is done: Mouse BMDM isolation and culture. Bone marrow was harvested from the femurs and tibias of 7-12-week-old C57BL/6J mice. Briefly, femurs and tibias were harvested from mice and crushed with a mortar and pestle in cold 1×PBS supplemented with 2.5% FBS. The mixture was passed through a 70-μm nylon cell strainer. RBCs were lysed for 4-5 min on ice in 1×RBC lysis buffer (Biolegend) and cells were centrifuged at 300×g for 5 min at 4° C. The cell pellet was washed in cold 1×PBS supplemented with 2.5% FBS before being passed again through in a 70-μm nylon cell strainer and counted. Counted cells were plated on non-tissue culture 10-cm plates at 5-10×10^6 cells per plate in DMEM supplemented with 10% FBS and 15-20% L-cell media. Cells were incubated at 37° C. for 6 days before replating and assaying as indicated.
LDH cytotoxicity and immunoblotting assays. HEK293T cells were transiently transfected and treated with inhibitors as indicated. MV4;11, OCI AML2, THP-1, and RAW264.7 cells were plated in 12-well culture plates at 5×10^5 cells/well and treated as indicated. Supernatants were analyzed for LDH activity using the Pierce LDH Cytotoxicity Assay Kit (Life Technologies). LDH activity was quantified relative to a lysis control where cells were lysed in 80 μL of a 9% Triton X-100 solution. For immunoblotting, cells were washed 2× in PBS (pH=7.4), resuspended in PBS, and lysed by sonication. Protein concentrations were determined and normalized using the DCA Protein Assay kit (Bio-Rad). The samples were separated by SDS-PAGE, immunoblotted, and visualized using the Odyssey Imaging System (Li-Cor).
(Release of lactate dehydrogenase indicates damage to the cell membrane.)

Assay [3] deals with XPNPEP1 (Homo sapiens (Human), UniProt Q9NQW7). Briefly: XPNPEP1 substrate assay (H-Lys(abz)-Pro-Pro-pNA). The settings on record: for IC50: XPNPEP1 3.5 nM, substrate 100 μM, 60 mins. The class given is biochemical.
The subject of assay [4] is N/TERT-1 keratinocytes. The experiment in a line: Cell viability of N/TERT-1 keratinocytes (NLRP1 inflammasome). The assay is classed as cell-based, human. The settings on record: VbP 10 μM, CQ compounds 20 μM, 24 h, CTG. The method, then:
Cell Culture. HEK293T, THP-1, RAW264.7 cells were purchased from ATCC. MV4;11, OCI-AML2 cells were purchased from DSMZ. N/TERT1 cells were a gift from the Rheinwald Lab (Dickson et al., 2000). HEK293T and RAW264.7 cells were grown in Dulbecco's Modified Eagle's Medium (DMEM) with L-glutamine and 10% fetal bovine serum (FBS). N/TERT1 cells were grown in Keratinocyte serum free medium (KSFM) supplemented with 1× penicillin/streptomycin, bovine pituitary extract (25 μg/ml) and epidermal growth factor (EGF) (0.2 ng/ml). All other cell lines were grown in Roswell Park Memorial Institute (RPMI) medium 1640 with L-glutamine and 10% fetal bovine serum (FBS). All cells were grown at 37° C. in a 5% CO2 atmosphere incubator. Cell lines were regularly tested for mycoplasma using the MycoAlert™ Mycoplasma Detection Kit (Lonza).
as §1

Assay [5] deals with recombinant human PEPD (Homo sapiens (Human), UniProt P12955). The experiment in a line: PEPD substrate assay (Ala-Pro cleavage, L-alanine assay kit). The class given is biochemical. To be noted: for IC50: 50 nM recombinant human PEPD, Ala-Pro 40 μM, 25° C.

This note sets out measurements from patent publication US20250368624A1, “M24B AMINOPEPTIDASE INHIBITORS FOR CARD8 INFLAMMASOME ACTIVATION” (Memorial Sloan-Kettering Cancer Center, priority 2022, published 2025).

Broadly, the IC50 is the concentration that inhibits the measured activity by half.

Chain of recombinant human PEPD (P12955 whole entry): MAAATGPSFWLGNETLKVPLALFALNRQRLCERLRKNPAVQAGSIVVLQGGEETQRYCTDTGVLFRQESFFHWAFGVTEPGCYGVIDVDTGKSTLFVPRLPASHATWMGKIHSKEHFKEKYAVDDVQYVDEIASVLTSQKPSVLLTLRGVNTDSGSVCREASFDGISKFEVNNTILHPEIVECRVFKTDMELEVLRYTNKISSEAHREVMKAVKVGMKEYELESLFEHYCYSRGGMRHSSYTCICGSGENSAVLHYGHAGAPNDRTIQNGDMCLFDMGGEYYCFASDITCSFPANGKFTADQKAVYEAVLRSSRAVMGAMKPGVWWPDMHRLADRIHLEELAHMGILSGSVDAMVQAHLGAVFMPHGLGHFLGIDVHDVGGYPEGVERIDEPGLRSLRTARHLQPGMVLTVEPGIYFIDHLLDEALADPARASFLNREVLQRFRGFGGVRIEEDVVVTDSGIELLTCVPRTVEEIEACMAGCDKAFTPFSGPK
Chain of XPNPEP1 (Q9NQW7 whole entry): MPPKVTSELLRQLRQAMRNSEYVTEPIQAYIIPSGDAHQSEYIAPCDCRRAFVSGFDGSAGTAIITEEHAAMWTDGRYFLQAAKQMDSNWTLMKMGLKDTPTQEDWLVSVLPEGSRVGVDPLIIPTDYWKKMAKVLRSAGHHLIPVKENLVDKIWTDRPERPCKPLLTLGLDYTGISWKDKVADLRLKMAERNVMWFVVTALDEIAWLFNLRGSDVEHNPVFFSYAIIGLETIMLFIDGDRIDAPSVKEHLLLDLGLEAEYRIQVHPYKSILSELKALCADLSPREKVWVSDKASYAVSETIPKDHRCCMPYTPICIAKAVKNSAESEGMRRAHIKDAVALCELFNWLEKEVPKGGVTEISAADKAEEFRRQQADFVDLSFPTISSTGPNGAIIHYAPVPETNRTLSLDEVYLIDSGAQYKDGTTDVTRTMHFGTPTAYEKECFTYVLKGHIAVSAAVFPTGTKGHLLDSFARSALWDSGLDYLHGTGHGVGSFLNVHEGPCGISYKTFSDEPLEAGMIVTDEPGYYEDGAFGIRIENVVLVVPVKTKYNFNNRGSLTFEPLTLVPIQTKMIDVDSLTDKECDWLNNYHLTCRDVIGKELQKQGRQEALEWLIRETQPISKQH

On to `COC(=O)[C@@H]1CCCN1C(=O)[C@@H](O)[C@H](N)CC(C)C` [CQ31], for which, in assay [1], the IC50 is 3800 nM. Besides, the “pyroptosis (LDH release and GSDMD cleavage)” value in assay [2] is recorded as “only VbP induced pyroptosis”. Moreover, in assay [3], the “XPNPEP1 inhibition (in words)” value was “inhibited PEPD and XPNPEP1 inhibitors similarly”; the IC50 was determined as 122000 nM. For the same compound, the “cell death in N/TERT-1 keratinocytes” value in assay [4] is “Only VbP induced cell death”. Also, in assay [5], the “PEPD inhibition (in words)” value was “inhibited PEPD and XPNPEP1 inhibitors similarly”; the IC50 stood at 670 nM.
For the compound `COC(=O)[C@H](CC(C)C)NC(=O)[C@@H]1CCCN1C(=O)[C@@H](O)[C@H](N)CC(C)C` [CQ80, Methyl ((2S,3R)-3-amino-2-hydroxy-5-methylhexanoyl)-L-prolyl-L-leucinate], the values for the IC50 in assay [1], in assay [3] and in assay [5] were 270 nM, 43000 nM and 910 nM, respectively. Further, the “pyroptosis (LDH release and GSDMD cleavage)” value in assay [2] is “only VbP induced pyroptosis”. Besides, the “cell death in N/TERT-1 keratinocytes” value in assay [4] is reported as “Only VbP induced cell death”.
